{
  "source": "patent US9388174B2",
  "about": "“Azole benzene derivative” (TEIJIN PHARMA LIMITED, priority 2013, dated 2016)",
  "data": [
    {"biological_target": "T1, oxidase-type xanthine oxidoreductase (from buttermilk) (Bos taurus, UniProt P80457)", "T1 construct": "purchased Calbiochem Novabiochem Corp; host or cells: buttermilk (natural source)", "T1 sequence (P80457 whole entry)": "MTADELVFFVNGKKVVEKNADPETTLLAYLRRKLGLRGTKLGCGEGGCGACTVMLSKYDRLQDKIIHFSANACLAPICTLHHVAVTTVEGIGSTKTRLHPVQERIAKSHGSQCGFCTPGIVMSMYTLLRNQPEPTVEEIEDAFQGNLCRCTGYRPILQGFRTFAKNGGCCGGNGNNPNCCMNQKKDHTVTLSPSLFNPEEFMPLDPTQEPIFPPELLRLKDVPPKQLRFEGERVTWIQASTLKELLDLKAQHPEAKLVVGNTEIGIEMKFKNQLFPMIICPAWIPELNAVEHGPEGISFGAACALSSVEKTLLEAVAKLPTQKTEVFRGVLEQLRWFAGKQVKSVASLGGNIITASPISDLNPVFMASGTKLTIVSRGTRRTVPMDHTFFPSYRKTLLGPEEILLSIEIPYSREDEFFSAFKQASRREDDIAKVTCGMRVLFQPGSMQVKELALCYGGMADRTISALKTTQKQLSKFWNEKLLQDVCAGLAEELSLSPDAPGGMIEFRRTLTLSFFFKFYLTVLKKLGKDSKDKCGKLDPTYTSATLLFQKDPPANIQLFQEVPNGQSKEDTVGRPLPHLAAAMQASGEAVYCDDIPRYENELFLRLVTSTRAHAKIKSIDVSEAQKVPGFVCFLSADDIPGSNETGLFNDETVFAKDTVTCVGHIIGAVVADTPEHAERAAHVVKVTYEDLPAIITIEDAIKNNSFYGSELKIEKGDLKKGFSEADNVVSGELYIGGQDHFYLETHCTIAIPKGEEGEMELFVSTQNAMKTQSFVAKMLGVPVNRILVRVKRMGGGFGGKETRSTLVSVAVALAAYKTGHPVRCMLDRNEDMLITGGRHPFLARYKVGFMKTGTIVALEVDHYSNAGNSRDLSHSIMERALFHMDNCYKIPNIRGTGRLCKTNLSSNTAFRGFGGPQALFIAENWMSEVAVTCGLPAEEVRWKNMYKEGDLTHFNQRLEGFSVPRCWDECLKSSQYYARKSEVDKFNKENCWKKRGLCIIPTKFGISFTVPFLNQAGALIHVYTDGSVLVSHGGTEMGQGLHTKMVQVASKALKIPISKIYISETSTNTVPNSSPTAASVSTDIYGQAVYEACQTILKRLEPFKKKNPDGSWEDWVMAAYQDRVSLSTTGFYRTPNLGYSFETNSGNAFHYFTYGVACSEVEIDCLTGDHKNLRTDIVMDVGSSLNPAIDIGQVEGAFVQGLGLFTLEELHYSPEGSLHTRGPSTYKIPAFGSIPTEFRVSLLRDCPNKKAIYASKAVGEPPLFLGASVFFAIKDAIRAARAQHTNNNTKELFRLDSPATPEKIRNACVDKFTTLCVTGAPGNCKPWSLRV", "experiment": "xanthine oxidase inhibitory activity (change of absorbance at 290 nm)", "assay_type": "biochemical", "conditions": "xanthine substrate, read-out: Inhibitor Activity", "protocol": "Test compound was dissolved in DMSO (manufactured by Sigma Co.) to prepare a 20 mM solution. The solution was adjusted to an optimal concentration and used for the testing.\nThis evaluation was carried out by measuring oxidase-type xanthine oxidoreductase activity. Concretely, a xanthine (manufactured by Sigma Co.) solution was prepared at 10 mM using a 20 mM sodium hydroxide solution and then mixed with 100 mM phosphate buffer to adjusted to 30 μM. 75 μL of the solution was added to each well of the 96-well plate. The test compound diluted with DMSO at 100 times of a final concentration was added to each well at 1.5 μL per well. […] Immediately after mixing, the change of absorbance at 290 nm was measured for 5 minutes. The enzyme activity of DMSO solution without test compound was used as 100% control, and the inhibitory rate of the test compounds was calculated. Fifty percent inhibitory concentration of the test compounds on the oxidase-type xanthine oxidoreductase activity was calculated by fitting to the dose-response curve.", "units": {"IC50": "nM"}, "values": [
      {"compound": "Cc1nc(-c2ccc(OC3CCCCC3)c(-n3ccnc3)c2)sc1C(=O)O", "note": "[compound 6, 2-[4-(cyclohexyloxy)-3-[1H-imidazol-1-yl)phenyl]-4-methyl-1,3-thiazole-5-carboxylic acid]", "IC50": "5 to 10"},
      {"compound": "CC(C)COc1ccc(-c2ncc(C(=O)O)s2)cc1-n1ccnn1", "note": "[compound 21, 2-[4-(2-methylpropoxy)-3-(1H-1,2,3-triazol-1-yl)phenyl]-1,3-thiazole-5-carboxylic acid]", "IC50": "1 to 5"},
      {"compound": "CC(C)Oc1ccc(-c2ncc(C(=O)O)s2)cc1-n1cnnn1", "note": "[compound 31, 2-[4-(propan-2-yloxy)-3-(1H-1,2,3,4-tetrazol-1-yl)phenyl]-1,3 thiazole-5-carboxylic acid]", "IC50": "1 to 5"},
      {"compound": "Cc1nc(-c2ccc(OCC(C)(C)C)c(-n3cnnn3)c2)sc1C(=O)O", "note": "[compound 26, 2-[4-(2,2-dimethylpropoxy)-3-(1H-1,2,3,4-tetrazol-1-yl)phenyl]-4-methyl-1,3-thiazole-5-carboxylic acid]", "IC50": "1 to 5"},
      {"compound": "Cc1nc(-c2ccc(OCC(C)C)c(-n3cnc4ccccc43)c2)sc1C(=O)O", "note": "[compound 11, 2-[3-(1H-1,3-benzodiazol-1-yl)-4-(2-methylpropoxy)phenyl]-4-methyl-1,3-thiazole-5-carboxylic acid]", "IC50": "1 to 5"},
      {"compound": "Cc1ncn(-c2cc(-c3nc(C)c(C(=O)O)s3)ccc2OCC(C)C)n1", "note": "[compound 12, 4-methyl-2-[3-(3-methyl-1H-1,2,4-triazol-1-yl)-4-(2-methylpropoxy)phenyl]-1,3-thiazole-5-carboxylic acid]", "IC50": "1 to 5"},
      {"compound": "Cc1nc(-c2ccc(OC(C)C)c(-n3cnnn3)c2)sc1C(=O)O", "note": "[Compound No. 24, 4-methyl-2-[4-(propan-2-yloxy)-3-(1H-1,2,3,4-tetrazole-1-yl)phenyl]-1,3-thiazole-5-carboxylic acid]", "IC50": "1 to 5"},
      {"compound": "Cc1cc(F)cc(Oc2ccc(-c3nc(C)c(C(=O)O)s3)cc2-n2cnnn2)c1", "note": "[compound 46, 2-[4-(3-fluoro-5-methylphenoxy)-3-(1H-1,2,3,4-tetrazol-1-yl)phenyl]-4-methyl-1,3-thiazole-5-carboxylic acid]", "IC50": "1 to 5"},
      {"compound": "Cc1nc(-c2ccc(OCC(C)C)c(-n3ccnc3C)c2)sc1C(=O)O", "note": "[compound 9, 4-methyl-2-[3-(2-methyl-1H-imidazol-1-yl)-4-(2-methylpropoxy)phenyl]-1,3-thiazole-5-carboxylic acid]", "IC50": "1 to 5"},
      {"compound": "Cc1nc(-c2ccc(Oc3ccccc3)c(-n3ccnc3)c2)sc1C(=O)O", "note": "[Compound No. 7, 2-[3-(1H-imidazol-1-yl)-4-phenoxyphenyl]-4-methyl-1,3-thiazole-5-carboxylic acid]", "IC50": "> 10"},
      {"compound": "COc1cccc(F)c1Oc1ccc(-c2nc(C)c(C(=O)O)s2)cc1-n1cnnn1", "note": "[compound 43, 2-[4-(2-fluoro-6-methoxyphenoxy)-3-(1H-1,2,3,4-tetrazol-1-yl)phenyl]-4-methyl-1,3-thiazole-5-carboxylic acid]", "IC50": "1 to 5"},
      {"compound": "Cc1nc(-c2ccc(OCC3CCC3)c(-n3ccnc3)c2)sc1C(=O)O", "note": "[Compound No. 3, 2-[4-(cyclobutylmethoxy)-3-(1H-imidazol-1-yl)phenyl]-4-methyl-1,3-thiazole-5-carboxylic acid]", "IC50": "5 to 10"},
      {"compound": "Cc1nc(-c2ccc(Oc3cccc(F)c3)c(-n3cnnn3)c2)sc1C(=O)O", "note": "[compound 37, 2-[4-(3-fluorophenoxy)-3-(1H-1,2,3,4-tetrazol-1-yl)phenyl]-4-methyl-1,3-thiazole-5-carboxylic acid]", "IC50": "1 to 5"},
      {"compound": "Cc1nc(-c2ccc(SC(C)C)c(-n3cnnn3)c2)sc1C(=O)O", "note": "[compound 50, 4-methyl-2-[4-(propan-2-ylsulfanyl)-3-(1H-1,2,3,4-tetrazol-1-yl)phenyl]-1,3-thiazole-5-carboxylic acid]", "IC50": "1 to 5"},
      {"compound": "Cc1nc(-c2ccc(OCC3CCCC3)c(-n3ccnc3)c2)sc1C(=O)O", "note": "[Compound No. 4, 2-[4-(cyclopentylmethoxy)-3-(1H-imidazol-1-yl)phenyl]-4-methyl-1,3-thiazole-5-carboxylic acid]", "IC50": "5 to 10"},
      {"compound": "Cc1nc(-c2ccc(OCC3CCC3)c(-n3cnnn3)c2)sc1C(=O)O", "note": "[compound 27, 2-[4-(cyclobutylmethoxy)-3-(1H-1,2,3,4-tetrazol-1-yl)phenyl]-4-methyl-1,3-thiazole-5-carboxylic acid]", "IC50": "1 to 5"},
      {"compound": "Cc1nc(-c2ccc(OCC3CCC3)c(-n3ccnn3)c2)sc1C(=O)O", "note": "[compound 19, 2-[4-(cyclobutylmethoxy)-3-(1H-1,2,3-triazol-1-yl)phenyl]-4-methyl-1,3-thiazole-5-carboxylic acid]", "IC50": "1 to 5"},
      {"compound": "Cc1nc(-c2ccc(Oc3ccccc3)c(-n3ccnn3)c2)sc1C(=O)O", "note": "[compound 22, 4-methyl-2-[4-phenoxy-3-(1H-1,2,3-triazol-1-yl)phenyl]-1,3-thiazole-5-carboxylic acid]", "IC50": "> 10"},
      {"compound": "Cc1ccccc1Oc1ccc(-c2nc(C)c(C(=O)O)s2)cc1-n1cnnn1", "note": "[compound 44, 2-[4-(2-methylphenoxy)-3-(1H-1,2,3,4-tetrazol-1-yl)phenyl]-4-methyl-1,3-thiazole-5-carboxylic acid]", "IC50": "1 to 5"},
      {"compound": "Cc1nc(-c2ccc(Oc3ccccc3Cl)c(-n3cnnn3)c2)sc1C(=O)O", "note": "[compound 39, 2-[4-(2-chlorophenoxy)-3-(1H-1,2,3,4-tetrazol-1-yl)phenyl]-4-methyl-1,3-thiazole-5-carboxylic acid]", "IC50": "1 to 5"},
      {"compound": "Cc1ccc(F)c(Oc2ccc(-c3nc(C)c(C(=O)O)s3)cc2-n2cnnn2)c1", "note": "[compound 48, 2-[4-(2-fluoro-5-methylphenoxy)-3-(1H-1,2,3,4-tetrazol-1-yl)phenyl]-4-methyl-1,3-thiazole-5-carboxylic acid]", "IC50": "1 to 5"},
      {"compound": "Cc1nc(-c2ccc(Oc3ccccc3)c(-n3cnnn3)c2)sc1C(=O)O", "note": "[Compound No. 33, 4-methyl-2-[4-phenoxy-3-(1H-1,2,3,4-tetrazol-1-yl)phenyl]-1,3 thiazole-5-carboxylic acid]", "IC50": "1 to 5"},
      {"compound": "Cc1nc(-c2ccc(OC(C)C)c(-n3ccnn3)c2)sc1C(=O)O", "note": "[Compound No. 16, 4-methyl-2-[4-(propan-2-yloxy)-3-(1H-1,2,3-triazol-1-yl)phenyl]-1,3-thiazole-5-carboxylic acid]", "IC50": "1 to 5"},
      {"compound": "Cc1cc(F)ccc1Oc1ccc(-c2nc(C)c(C(=O)O)s2)cc1-n1cnnn1", "note": "[compound 41, 2-[4-(4-fluoro-2-methylphenoxy)-3-(1H-1,2,3,4-tetrazol-1-yl)phenyl]-4-methyl-1,3-thiazole-5-carboxylic acid]", "IC50": "1 to 5"},
      {"compound": "Cc1nc(-c2ccc(OCC(C)(C)C)c(-n3ccnn3)c2)sc1C(=O)O", "note": "[compound 18, 2-[4-(2,2-dimethylpropoxy)-3-(1H-1,2,3-triazol-1-yl)phenyl]-4-methyl-1,3-thiazole-5-carboxylic acid]", "IC50": "1 to 5"},
      {"compound": "Cc1nc(-c2ccc(OCC(C)C)c(-n3nnnc3C)c2)sc1C(=O)O", "note": "[compound 10, 4-methyl-2-[3-(5-methyl-1H-1,2,3,4-tetrazol-1-yl)-4-(2-methylpropoxy)phenyl]-1,3-thiazole-5-carboxylic acid]", "IC50": "5 to 10"},
      {"compound": "Cc1nc(-c2ccc(OCC(C)C)c(-n3ccnc3)c2)sc1C(=O)O", "note": "[Compound No. 1, 2-[3-(1H-imidazol-1-yl)-4-(2-methylpropoxy)phenyl]-4-methyl-1,3-thiazole-5-carboxylic acid]", "IC50": "1 to 5"},
      {"compound": "COc1ccccc1Oc1ccc(-c2nc(C)c(C(=O)O)s2)cc1-n1cnnn1", "note": "[compound 35, 2-[4-(2-methoxyphenoxy)-3-(1H-1,2,3,4-tetrazol-1-yl)phenyl]-4-methyl-1,3-thiazole-5-carboxylic acid]", "IC50": "1 to 5"},
      {"compound": "Cc1cccc(Oc2ccc(-c3nc(C)c(C(=O)O)s3)cc2-n2cnnn2)c1", "note": "[compound 38, 2-[4-(3-methylphenoxy)-3-(1H-1,2,3,4-tetrazol-1-yl)phenyl]-4-methyl-1,3-thiazole-5-carboxylic acid]", "IC50": "1 to 5"},
      {"compound": "Cc1nc(-c2ccc(OCC(C)C)c(-n3cncn3)c2)sc1C(=O)O", "note": "[compound 13, 4-methyl-2-[4-(2-methylpropoxy)-3-(1H-1,2,4-triazol-1-yl)phenyl]-1,3-thiazole-5-carboxylic acid]", "IC50": "1 to 5"},
      {"compound": "CC(C)Oc1ccc(-c2ncc(C(=O)O)s2)cc1-n1ccnn1", "note": "[compound 20, 2-[4-(propan-2-yloxy)-3-(1H-1,2,3-triazol-1-yl)phenyl]-1,3-thiazole-5-carboxylic acid]", "IC50": "1 to 5"},
      {"compound": "Cc1nc(-c2ccc(OC3CCCC3)c(-n3ccnc3)c2)sc1C(=O)O", "note": "[Compound No. 5, 2-[4-(cyclopentyloxy)-3-(1H-imidazol-1-yl)phenyl]-4-methyl-1,3-thiazole-5-carboxylic acid]", "IC50": "5 to 10"},
      {"compound": "Cc1ccc(Sc2ccc(-c3nc(C)c(C(=O)O)s3)cc2-n2cnnn2)cc1", "note": "[compound 51, 4-methyl-2-{4-[(4-methylphenyl)sulfanyl]-3-(1H-1,2,3,4-tetrazol-1-yl)phenyl}-1,3-thiazole 5-carboxylic acid]", "IC50": "1 to 5"},
      {"compound": "Cc1nc(-c2ccc(OCC(C)(C)O)c(-n3cnnn3)c2)sc1C(=O)O", "note": "[Compound No. 30, 2-[4-(2-hydroxy-2-methylpropoxy)-3-(1H-1,2,3,4-tetrazol-1-yl)phenyl]-4-methyl-1,3-thiazole-5-carboxylic acid]", "IC50": "1 to 5"},
      {"compound": "CC(C)COc1ccc(-c2ncc(C(=O)O)s2)cc1-n1cnnn1", "note": "[compound 32, 2-[4-(2-methylpropoxy)-3-(1H-1,2,3,4-tetrazol-1-yl)phenyl]-1,3 thiazole-5-carboxylic acid]", "IC50": "1 to 5"},
      {"compound": "Cc1nc(-c2ccc(Oc3cc(F)ccc3F)c(-n3cnnn3)c2)sc1C(=O)O", "note": "[compound 47, 2-[4-(2,5-difluorophenoxy)-3-(1H-1,2,3,4-tetrazol-1-yl)phenyl]-4-methyl-1,3-thiazole-5-carboxylic acid]", "IC50": "1 to 5"}
    ]}
  ]
}
